Assay results as given in patent US20230172940A1, “METHODS OF EXTENDING LIFESPAN BY ADMINISTERING FERROPTOSIS INHIBITORS” (COLLABORATIVE MEDICINAL DEVELOPMENT, LLC, priority 2020, published 2023).
Where “and” joins values, the source holds several entries; their conditions need not be identical. Equal entries are not always repeated. Marks after values point to notes of the source that are not given here.

What was measured:
[1] = system: C. elegans strain TJ1060; assay: Lifespan determination; format: in vivo, Caenorhabditis elegans; conditions: for average increase in median lifespan: 8 independent replicates, 200 μM Lip-1 or 250 μM SIH; for effect on survival curve: in vivo
Description: Lifespan was measured using established protocols. SIH was dissolved in neat dimethyl sulfoxide (DMSO; Sigma-Aldrich) then added to the molten NGM at 55° C. (to a final concentration of 250 μM SIH in 0.5% v/v DMSO). Lip-1 was dissolved in neat DMSO then added to the molten NGM at 55° C. (to a final concentration of 200 μM Lip-1 in 0.5% v/v DMSO). Media containing equivalent vehicle alone (0.5% v/v DMSO) was used for comparison. Standard overnight culture of the Escherichia coli (E. coli) strain OP50 was used as the food source.
Lifespan data was collected at 25 (±1) ° C. using the temperature sensitive-sterile strain TJ1060 [spe-9(hc88); fer-15(b26)]. A synchronous population was obtained by transferring egg-laying adults to fresh plates at 16° C. for 2-3 hours. The adults were removed and the plates with eggs then transferred to 25° C. to ensure sterility. After 48 hours at 25° C., when worms were at the late L4/young adult stage, 25-35 nematodes were transferred to fresh plates containing either vehicle control, 250 μM SIH, or 200 μM Lip-1. All plates were coded to allowing blinding of the experimenter to the treatment regime during scoring. Nematodes were scored for survival at one to three-day intervals and transferred to freshly prepared plates as needed (2-5 days).
It is well documented that differences are observed between independent measures of lifespan, with micro-environmental factors such as minor temperature fluctuations potentially resulting differences in median and maximum lifespan between replicates. After determining the optimal doses of 250 μM SIH and 200 μM Lip-1, respectively, cohorts of nematodes were compared in 8 independent replicates. As the number of worms measured is known to influence the likelihood of accurately observing differences in lifespan, the starting populations for all treatments within experiments were in excess of 70 individuals.

[2] = system: C. elegans strain TJ1060; assay: Parametric survival models (Weibull frailty), goodness of fit, combining replicates, meta-analysis; parameters: species or system Caenorhabditis elegans
Description: Parametric survival models with Weibull baseline hazards and Gamma frailty were fitted to replicate-specific data using the R package flexsurv. A likelihood ratio test was used to compare models that assume simple temporal rescaling to models that allow varying degrees of departure from temporal rescaling. The best model for each replicate was selected using a likelihood ratio test and the goodness of fit (GOF) of the best model is evaluated using a chi-square GOF test. To combine data across different replicates, we performed fixed-effect and random-effect meta-analyses for each parameter in the best model. Briefly, the fixed-effect meta-analysis estimates were derived using Inverse Variance Weighting (IVW) in which the estimates from each replicate were weighted by the inverse of their variance estimates. The meta-analysis estimates were then calculated simply as the weighted average of estimates from all replicates. The fixed-effect meta-analysis assumes that there is insignificant variation between the estimates of the same parameter across different replicates. The random-effect meta-analysis also derives the estimates by assigning weights to estimates from each replicate, but in this case the weights take into account the variation of estimates across replicates. […]

[3] = system: Wild type (N2); assay: Fertility analysis; format: in vivo, Caenorhabditis elegans; conditions: treated from early adulthood/late L4; for Early fertility (first 24 hours): p>0.4
Description: Wild type (N2) adults (4-day post egg lay) were transferred to fresh plates for 30 minutes at 20° C. to establish a developmentally synchronous population. Adult nematodes were then removed, and eggs were then transferred to 25° C. As with the survival analyses, after 48 hours at 25° C., when worms were at the late L4/young adult stage individual nematodes were transferred to plates containing vehicle control, 250 μM SIH, or 200 μM Lip-1. After 24 hours, adult worms were transferred to fresh plates and transferred daily until the end of the fertile period. After allowing progeny to develop for 2 days at 20° C., they were then counted to determine daily and total fertility. Early fertility is determined by the number of progeny laid in the first 24-hour period. Differences in fertility (i.e. early and total reproductive output) were assessed using an ordinary one-way analysis of variance (ANOVA), followed by a Tukey's multiple comparison test (as implemented by Prism v7.0a, GraphPad Software).

[4] = 200 μM Lip-1, days of adulthood at 25 (±1)° C, single replicate experiments 1-8
[5] = 250 μM SIH, days of adulthood at 25 (±1)° C, single replicate experiments 1-8

Row | Compound | % median Ý, Mean of 8 replicates ([1]; 200 μM Lip-1) | max. lifespan, Mean of 8 replicates ([1]; 200 μM Lip-1, 25 (±1)° C) [days] | median lifespan, Mean of 8 replicates ([1]; 200 μM Lip-1, 25 (±1)° C) [days] | max. lifespan [1, 4] | median lifespan [1, 4] | % median Ý (median lifespan vs control) ([1]; 200 μM Lip-1, single replicate experiments 1-8) | average increase in median lifespan [1] [%] | effect on survival curve [1] | rate of mortality in the post-reproductive period (late-life) [2] | lifetime reproductive output [3] | Early fertility (first 24 hours) [3] | % median Ý, Mean of 8 replicates ([1]; 250 μM SIH) | max lifespan, Mean of 8 replicates ([1]; 250 μM SIH, 25 (±1)° C) [days] | median lifespan, Mean of 8 replicates ([1]; 250 μM SIH, 25 (±1)° C) [days] | max lifespan [1, 5] | median lifespan [1, 5] | % median Ý (median lifespan vs control) ([1]; 250 μM SIH, single replicate experiments 1-8) | risk of death (hazard) in early adulthood ([2]; compared to control populations, rose precipitously in late life)
1 | Clc1cccc(CNC2=Nc3ccccc3NC23CCNCC3)c1 [Lip-1, N-[(3-chlorophenyl)methyl]-spiro[piperidine-4,2′(1′H)-quinoxalin]-3′-amine] | +72% | 25 | 13 | 25 days (2×) and 20 days and 24 days (2×) and 26 days (2×) and 27 days | 13* days and 11† days and 14* days (4×) and 12* days and 15* days | 86% and 38% and 56% (2×) and 100% and 50% and 114% and 75% | ~70 | primarily altered late life survival | markedly reduced | small decrease | not altered |  |  |  |  |  |  | 
2 | O=C(N/N=C/c1ccccc1O)c1ccncc1 [SIH, Salicylaldehyde isonicotinoyl hydrazone] |  |  |  |  |  |  | ~100 | extended mid-life with a squaring of the survival curve |  | no effect | not altered | +101% | 22 | 16 | 19 days (2×) and 23 days and 20 days and 18 days and 24 days and 29 days and 26 days | 14* days (4×) and 16* days (2×) and 17* days and 20* days | 100% and 75% (2×) and 78% and 129% and 56% and 143% and 150% | greatly reduced
